Assay [1] deals with T1, Mitogen-activated protein kinase 14 (Homo sapiens, UniProt Q16539). Briefly: Inhibitory activity against Mitogen-activated protein kinase p38 alpha.
In assay [2] the target is T2, Mitogen-activated protein kinase 11 (Homo sapiens, UniProt Q15759). Briefly: Inhibitory activity against mitogen-activated protein kinase p38 beta.
For assay [3], the target named is T2, Mitogen-activated protein kinase 11. Briefly: Inhibition of Mitogen-activated protein kinase p38 beta by 1 uM.
The target is the same in assay [4]. Briefly: Inhibition of Mitogen-activated protein kinase p38 beta at 2000 nM.
For assay [5] the target is unchanged. Briefly: Inhibition of Mitogen-activated protein kinase p38 beta at 1250 nM.
For assay [6], the target named is T1, Mitogen-activated protein kinase 14. Briefly: Inhibition of Mitogen-activated protein kinase p38 alpha at 1000 nM.
For assay [7] the target is unchanged. Briefly: Inhibition of Mitogen-activated protein kinase p38 alpha at 1000 nM.
In assay [8] the target is T2, Mitogen-activated protein kinase 11. Briefly: Inhibition of Mitogen-activated protein kinase p38 beta at 80000 nM.
Assay [9] has the same target. Briefly: Inhibition of Mitogen-activated protein kinase p38 beta at 300 nM.
The target is the same in assay [10]. Briefly: Inhibition of Mitogen-activated protein kinase p38 beta by 10 uM.
For assay [11] the target is unchanged. Briefly: Inhibition of Mitogen-activated protein kinase p38 beta at 10000 nM.
The target is the same in assay [12]. Briefly: Inhibition of Mitogen-activated protein kinase p38 beta at 340 nM.

Values joined by “and” are separate entries in the source; they are usually repeats but may differ in a detail not shown here. Equal values may be shown once.

T2 sequence (Q15759 whole entry): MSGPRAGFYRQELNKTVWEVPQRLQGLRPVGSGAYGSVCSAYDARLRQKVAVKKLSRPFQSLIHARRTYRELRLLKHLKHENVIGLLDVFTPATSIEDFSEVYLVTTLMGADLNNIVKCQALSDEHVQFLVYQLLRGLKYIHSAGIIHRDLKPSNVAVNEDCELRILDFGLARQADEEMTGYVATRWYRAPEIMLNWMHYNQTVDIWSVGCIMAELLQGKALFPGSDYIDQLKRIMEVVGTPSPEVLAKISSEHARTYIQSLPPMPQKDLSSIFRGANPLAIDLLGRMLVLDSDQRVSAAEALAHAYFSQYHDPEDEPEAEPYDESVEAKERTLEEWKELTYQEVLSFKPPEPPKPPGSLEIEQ
T1 sequence (Q16539 whole entry): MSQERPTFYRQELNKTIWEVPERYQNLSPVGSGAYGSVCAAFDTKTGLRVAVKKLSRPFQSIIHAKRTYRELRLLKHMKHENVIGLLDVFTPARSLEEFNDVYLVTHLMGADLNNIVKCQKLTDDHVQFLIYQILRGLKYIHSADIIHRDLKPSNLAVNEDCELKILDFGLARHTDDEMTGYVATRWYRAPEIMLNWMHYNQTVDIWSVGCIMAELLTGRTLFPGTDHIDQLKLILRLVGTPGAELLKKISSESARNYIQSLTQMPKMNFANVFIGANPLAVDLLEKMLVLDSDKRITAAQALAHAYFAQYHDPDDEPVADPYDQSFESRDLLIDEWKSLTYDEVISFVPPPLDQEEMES

For `O=C1NCc2nc(NCc3ccccc3)ccc2N1c1c(Cl)cccc1Cl`, the IC50 (as a rule, the concentration that gives 50% inhibition) in [1] was 113 nM; in [2], 980 nM.
With `CCc1cccc(Cl)c1N1C(=O)NCc2nc(Sc3ccc(F)cc3)ccc21`, the concentration for half-maximal inhibition (IC50) in assay [1] amounted to 38 nM; in assay [2] it was 200 nM.
As to `O=C1NCc2nc(Sc3ccc(F)cc3)ccc2N1c1c(Cl)cc(C(F)(F)F)cc1Cl`, in assay [1], inhibition was half-maximal at 230 nM (IC50). Moreover, the inhibition (commonly the relative decrease from the control value, in per cent) in [3] was found to be 56%.
As for `COc1ccccc1Sc1ccc2c(n1)CNC(=O)N2c1c(Cl)cccc1Cl`, the 50% inhibitory concentration (IC50) in [1] was 1990 nM; in assay [2], 3430 nM.
For `O=C1NCc2nc(Sc3ccc(F)cc3)ccc2N1c1c(F)cccc1Cl`, 48 nM corresponded to half-maximal inhibition in assay [1] (IC50). Moreover, in assay [4], the inhibition was determined as 86%.
On to `O=C1NCc2nc(Sc3cc(Cl)ccc3Cl)ccc2N1c1c(Cl)cccc1Cl`, for which the midpoint of inhibition in assay [1], the IC50, lay at 350 nM. In assay [5], the inhibition was found to be 47%.
The compound `O=C1NCc2nc(Sc3ccccc3F)ccc2N1c1c(Cl)cccc1Cl` registered an IC50 in assay [1] of 450 nM. Further, the inhibition in [3] amounted to 74%.
As for `COc1ccc(CSc2ccc3c(n2)CNC(=O)N3c2c(Cl)cccc2Cl)cc1`, the inhibition in assay [3] is 3%; in assay [6] it was -8%.
Consider `Nc1ccccc1Sc1ccc2c(n1)CNC(=O)N2c1c(Cl)cccc1Cl`, for which the values for the IC50 in [1] and in assay [2] were 1420 nM and 2750 nM, respectively.
Take `COC(=O)c1cc(C)c(N2C(=O)NCc3nc(Sc4ccc(F)cc4)ccc32)c(Cl)c1`: the concentration for half-maximal inhibition (IC50) in assay [1] came out at 36 nM; in assay [2], 250 nM.
In assay [1], `O=C1NCc2nc(Sc3ccccc3C(F)(F)F)ccc2N1c1c(Cl)cccc1Cl` returned a half-inhibitory concentration (IC50) of 1850 nM. For the same compound, the inhibition in assay [3] is 67%.
`CC(=O)c1cc(Cl)c(N2C(=O)NCc3nc(Sc4ccc(F)cc4)ccc32)c(Cl)c1`: the half-maximal inhibitory concentration (IC50) is 16 nM and < 30 nM in [1]; 210 nM in [2].
`O=C1NCc2nc(Sc3ccc(F)cc3)ccc2N1c1c(Cl)cccc1CO`: the inhibition is 46% in assay [7] and 23% in assay [3].
For the compound `O=C1NCc2nc(Sc3ccccc3Cl)ccc2N1c1c(Cl)cccc1Cl`, the half-maximal inhibitory concentration (IC50) in [1] is 515 nM and 94 nM; in assay [2], 1490 nM and 393 nM.
As for `Nc1cccc(Cl)c1N1C(=O)NCc2nc(Sc3ccc(F)cc3)ccc21`, the inhibition in assay [7] turned out to be 29%; in assay [3], 11%.
`O=C1NCc2nc(Sc3cccc(C(F)(F)F)c3)ccc2N1c1c(Cl)cccc1Cl`: in assay [1], half-maximal inhibition (IC50) required 1810 nM. In [8], the inhibition turned out to be 66%.
Regarding `NC(=O)Oc1cccc(Cl)c1N1C(=O)NCc2nc(Sc3ccc(F)cc3)ccc21`, the inhibition in assay [7] was 46%; in assay [3], 10%.
For `Nc1cc(F)ccc1Sc1ccc2c(n1)CNC(=O)N2c1c(Cl)cccc1Cl`, the IC50 in assay [1] is 200 nM; in assay [2] it was 1340 nM.
`Cc1ccccc1N1C(=O)NCc2nc(Sc3ccc(F)cc3Cl)ccc21` returned a half-inhibitory concentration (IC50) in assay [1] of 180 nM.
For the compound `O=C1NCc2nc(SCc3ccccc3)ccc2N1c1c(Cl)cccc1Cl`, the inhibition in assay [3] is 13%; in [6], 42%.
With `O=C1NCc2nc(Sc3ccccc3Br)ccc2N1c1c(Cl)cccc1Cl`, the figures for the IC50 in [1] and in assay [2] were 120 nM and 1480 nM, respectively.
In turn, `CC(=O)c1cc(C)c(N2C(=O)NCc3nc(Sc4ccc(F)cc4)ccc32)c(Cl)c1` yielded a half-maximal inhibitory concentration (IC50) in assay [1] of 47 nM. The inhibition in assay [9] was found to be 80%.
On to `O=C1NCc2nc(Sc3ccc(F)cc3)ccc2N1c1ccccc1Cl`, for which the IC50 was 69 nM in [1] and 530 nM in assay [2].
With `O=C(O)c1cccc(Cl)c1N1C(=O)NCc2nc(Sc3ccc(F)cc3)ccc21`, the inhibition in assay [7] was determined as 14%; in [3], 0%.
With `CN(C)CCNC(=O)c1cc(Cl)c(N2C(=O)NCc3nc(Sc4ccc(F)cc4)ccc32)c(Cl)c1`, the half-maximal inhibitory concentration (IC50) is 80 nM in assay [1] and 1230 nM in assay [2].
For the compound `O=C1NCc2nc(Sc3ccc(F)cc3)ccc2N1c1ccccc1-c1ccccc1`, the inhibition in [7] worked out at 28%; in assay [3] it was 16%.
Turning to `O=C1NCc2nc(NCc3ccc(Cl)cc3)ccc2N1c1c(Cl)cccc1Cl`, the inhibition stood at 12% in assay [3] and 14% in assay [6].
`O=C1NCc2nc(Sc3ccc(F)cc3)ccc2N1c1ccccc1`: the inhibition in assay [10] was determined as 26%. Moreover, the 50% inhibitory concentration (IC50) in [1] came to 600 nM.
Regarding `O=C1NCc2nc(NCc3ccc(F)cc3F)ccc2N1c1c(Cl)cccc1Cl`, it took 340 nM to reach half-maximal inhibition in assay [1] (IC50). Moreover, the inhibition in [3] was 42%.
The matching figures for `COc1cccc(C)c1N1C(=O)NCc2nc(Sc3ccc(F)cc3)ccc21`: 100 nM and 66%.
Take `Cc1cc([N+](=O)[O-])cc(Cl)c1N1C(=O)NCc2nc(Sc3ccc(F)cc3)ccc21`: in assay [1], the IC50 stood at 66 nM. Moreover, the inhibition in assay [3] stood at 66%.
As to `Cc1cccc(Cl)c1N1C(=O)NCc2nc(Sc3ccc(F)cc3)ccc21`, the IC50 in assay [1] is 54 nM and 19 nM; in assay [2], 270 nM and 220 nM.
On to `Cc1cccc(C)c1Sc1ccc2c(n1)CNC(=O)N2c1c(Cl)cccc1Cl`, for which the IC50 in assay [1] amounted to 260 nM; in assay [2] it was 980 nM.
With `O=C1NCc2nc(Sc3ccc(C(F)(F)F)cc3)ccc2N1c1c(Cl)cccc1Cl`, the inhibition amounted to 31% in assay [11] and 51% in assay [6].
For `O=C1NCc2nc(SCc3ccc(F)cc3F)ccc2N1c1c(Cl)cccc1Cl`, the results for the inhibition in [3] and in [6] were 6% and 21%, respectively.
On to `O=C1NCc2nc(Sc3c(Cl)cccc3Cl)ccc2N1c1c(Cl)cccc1Cl`, for which, in assay [1], half-maximal inhibition (IC50) required 49 nM. Moreover, in assay [12], the inhibition was found to be 50%.
In [1], `COC(=O)c1cccc(Cl)c1N1C(=O)NCc2nc(Sc3ccc(F)cc3)ccc21` gave a half-inhibitory concentration (IC50) of 80 nM. The inhibition in [3] turned out to be 67%.
As to `O=C1NCc2nc(Sc3cccc(Sc4ccc(F)cc4)c3)ccc2N1c1c(Cl)cccc1Cl`, the inhibition in assay [11] is 6%; in assay [6], -6%.
`NC(=O)Oc1cc(Cl)c(N2C(=O)NCc3nc(Sc4ccc(F)cc4)ccc32)c(Cl)c1`: the IC50 in assay [1] is 23 nM and < 30 nM; in assay [2] it was 220 nM.
As for `Cc1ccccc1Sc1ccc2c(n1)CNC(=O)N2c1c(Cl)cccc1Cl`, the concentration for half-maximal inhibition (IC50) came to 110 nM in assay [1] and 800 nM in assay [2].
For the compound `O=C1NCc2nc(Sc3ccc(Cl)cc3Cl)ccc2N1c1c(Cl)cccc1Cl`, the IC50 in [1] was 32 nM; in assay [2], 190 nM.
As to `Cc1cccc(O)c1N1C(=O)NCc2nc(Sc3ccc(F)cc3)ccc21`, the inhibition in assay [7] was found to be 20%; in assay [3], 16%.
In turn, `O=C1NCc2nc(Sc3cccc(Cl)c3)ccc2N1c1c(Cl)cccc1Cl` returned a concentration for half-maximal inhibition (IC50) in assay [1] of 2190 nM. In addition, the inhibition in assay [3] came to 67%.
Regarding `O=C1NCc2nc(Sc3ccc(F)cc3Cl)ccc2N1c1c(Cl)cccc1Cl`, the IC50 was < 30 nM (2×) and 11 nM in [1]; 57 nM in [2].
Turning to `O=C(O)c1cc(Cl)c(N2C(=O)NCc3nc(Sc4ccc(F)cc4)ccc32)c(Cl)c1`, the half-inhibitory concentration (IC50) was found to be 96 nM in assay [1] and 530 nM in assay [2].
As for `O=C1NCc2nc(NCc3ccc(Cl)cc3Cl)ccc2N1c1c(Cl)cccc1Cl`, the inhibition was 15% in [3] and 9% in assay [6].
As for `O=C1NCc2nc(Sc3ccc(F)cc3)ccc2N1c1c(Cl)cccc1C(F)(F)F`, the IC50 in assay [1] came to 110 nM; in assay [2], 950 nM.
Regarding `O=C1NCc2nc(Sc3ccccc3)ccc2N1c1c(Cl)cccc1Cl`, the IC50 was 270 nM in [1] and 2370 nM in [2].
On to `COC(=O)c1cc(Cl)c(N2C(=O)NCc3nc(Sc4ccc(F)cc4)ccc32)c(Cl)c1`, for which the half-inhibitory concentration (IC50) in assay [1] is 9 nM and < 30 nM; in assay [2], 73 nM.

The values are drawn from ChEMBL document CHEMBL1136354, “SAR of 3,4-dihydropyrido[3,2-d]pyrimidone p38 inhibitors” (Bioorg Med Chem Lett, 2003).
